Consider 13 molecules from patent publication US7799775B2, “Pyrimidine derivatives” (ASKA Pharmaceutical Co., Ltd., priority 2004, dated 2010).

One data set deals with T1, human 5-HT3 receptor (Homo sapiens, UniProt P46098).
T1 construct: purchased BIOLINKS K.K; host or cells: HEK-293 cells (membrane preparation)
T1 sequence (P46098 24-478): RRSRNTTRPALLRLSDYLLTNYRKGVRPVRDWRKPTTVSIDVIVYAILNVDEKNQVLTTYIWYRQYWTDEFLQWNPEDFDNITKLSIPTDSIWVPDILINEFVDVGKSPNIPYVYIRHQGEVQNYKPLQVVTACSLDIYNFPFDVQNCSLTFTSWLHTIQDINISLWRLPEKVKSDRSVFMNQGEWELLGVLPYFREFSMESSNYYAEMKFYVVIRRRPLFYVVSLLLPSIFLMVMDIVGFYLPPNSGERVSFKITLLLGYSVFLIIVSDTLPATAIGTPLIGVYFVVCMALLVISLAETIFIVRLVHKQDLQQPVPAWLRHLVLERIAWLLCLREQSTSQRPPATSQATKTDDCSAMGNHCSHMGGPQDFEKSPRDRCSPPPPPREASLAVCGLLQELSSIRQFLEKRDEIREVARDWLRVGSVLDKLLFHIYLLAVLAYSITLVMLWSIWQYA
In words: Measurement of affinity to human 5-HT3 receptor (in vitro), [3H]BRL-43694 binding. Conditions: test compound 100 nmols/L; [3H]BRL-43694 0.5 nmols/L; HEK-293 cell membrane expressing human 5-HT3 receptor; read-out: Percent Inhibition (%) on Each Receptor's Binding at 10^−7M, 5-HT3. The gist of the method:
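Membranes from HEK-293 cells expressing the receptor were incubated with 0.5 nmol/L radioligand and compound for 60 min at 25 °C in Tris/MgCl2/EDTA buffer, pH 7.5. Bound radioactivity was collected by filtration and counted. Percent inhibition was corrected for non-specific binding defined with 10 μmol/L tropisetron; compounds were tested at 100 nmol/L.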

For the next data set, the target named is T2, human 5-HT1A receptor (Homo sapiens, UniProt P08908).
T2 construct: purchased Packard Bioscience; host or cells: CHO cells (membrane preparation)
T2 sequence (P08908 1-422): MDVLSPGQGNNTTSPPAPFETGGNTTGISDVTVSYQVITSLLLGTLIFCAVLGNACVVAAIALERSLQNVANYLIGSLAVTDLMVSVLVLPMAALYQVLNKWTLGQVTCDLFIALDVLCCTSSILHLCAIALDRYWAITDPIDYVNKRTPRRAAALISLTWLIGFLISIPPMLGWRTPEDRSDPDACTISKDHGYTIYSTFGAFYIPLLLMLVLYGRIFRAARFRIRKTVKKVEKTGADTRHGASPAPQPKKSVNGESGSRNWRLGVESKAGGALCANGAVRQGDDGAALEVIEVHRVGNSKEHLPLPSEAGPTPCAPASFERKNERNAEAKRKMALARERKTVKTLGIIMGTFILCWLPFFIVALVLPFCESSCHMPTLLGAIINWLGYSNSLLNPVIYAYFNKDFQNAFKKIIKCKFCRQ
In words: Affinity measurement of the compounds to human 5-HT1A receptor (in vitro), [3H]8-OH-DPAT binding. Conditions: test compound 100 nmols/L; [3H]8-OH-DPAT 0.25 nmols/L; CHO cell membrane expressing human 5-HT1A receptor; read-out: Percent Inhibition (%) on Each Receptor's Binding at 10^−7M, 5-HT1A. The gist of the method: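 Membranes from CHO cells expressing human 5-HT1A were incubated 60 min at 27 °C with 0.25 nmol/L [3H]8-OH-DPAT and compound in Tris/MgSO4/EDTA/ascorbate buffer, pH 7.4. Bound radioactivity was collected on PEI-soaked GF/C filters and counted; percent inhibition was corrected for non-specific binding defined with 10 μmol/L 8-OH-DPAT.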

In data set [1] the test system is rats under restraint stress. In words: Measurement of defecation acceleration in rats under restraint stress. The class given is in vivo, rat. Particulars: 1 hour restraint stress, group average (Normal 1.7, Control 6.8). As for the experimental part:
(5) Measurement of Defecation Acceleration in Rats under Restraint Stress […] Feed and drinking water were left for their free ingestion until the morning of the day on which the test was given. On the day of the experiment, test compounds were orally administered and positive control solution (the used compounds were dissolved in 1N-hydrochloric acid and diluted with a suitable amount of saline) was administered intraperitoneally. Five (5) minutes thereafter, under lightly anesthetized condition, the rats were placed under restraint stress, with their upper half of the bodies including the front feet immobilized with gum tape. The restraint stress loading was conducted for an hour, and the number of excrements discharged during that period was counted. […] Those compounds which were used as the positive control chemicals used in the acceleration of defecation in rats under restraint stress are identified with the following structures.

[2] abbreviates: 0.3 mg/kg intraperitoneal administration.
The mark [3] stands for this setting: 1 mg/kg intraperitoneal administration.
Where [4] appears, read: 3 mg/kg intraperitoneal administration.

The term melting point denotes the temperature, or range, at which the solid turns liquid. As usually defined, the inhibition is the drop in the measured response relative to a control, in per cent.

The structures appear in SMILES notation.

On to `Cc1sc2nc(SCCCN3CCN(c4ccccn4)CC3)n(N)c(=O)c2c1C` [Example 1-2, 3-amino-5,6-dimethyl-2-[3-(4-pyridin-2-ylpiperazin-1-yl)propylthio]-3H-thieno[2,3-d]pyrimidin-4-one], for which the melting point fell in the range of 183.1 to 184.8 °C. On the same count and under the same terms, as for `Cc1sc2nc(SCCCN3CCN(c4nc5ccccc5s4)CC3)n(N)c(=O)c2c1C` [Example 1-6, 3-amino-2-[3-(4-benzothiazol-2-ylpiperazin-1-yl)propylthio]-5,6-dimethyl-3H-thieno[2,3-d]pyrimidin-4-one], the figure is 200.5 to 201.2 °C. Molecule `Cc1sc2nc(SCCCN3CCN(c4ccccn4)CC3)[nH]c(=O)c2c1C` [Example 2-1, 5,6-dimethyl-2-[3-(4-pyridin-2-ylpiperazin-1-yl)propylthio]-3H-thieno[2,3-d]-pyrimidin-4-one] yielded a melting point of 209 to 209.4 °C. The inhibition at 0.1 µM on human 5-HT3 receptor came out at 52.6%. The inhibition at 0.1 µM at human 5-HT1A receptor was found to be 60.8%. For `O=c1[nH]c(SCCCN2CCN(c3ccccn3)CC2)nc2sc3c(c12)CCCC3` [Example 2-2, 2-[3-(4-pyridin-2-ylpiperazin-1-yl)propylthio]-5,6,7,8-tetrahydro-3H-benzo[4,5]thieno[2,3-d]pyrimidin-4-one], the melting point was in the range of 190.2 to 191.6 °C. For `CCOC(=O)c1sc2nc(SCCCN3CCN(c4ccccn4)CC3)[nH]c(=O)c2c1C` [Example 2-3, 5-methyl-4-oxo-2-[3-(4-pyridin-2-ylpiperazin-1-yl)propylthio]-3,4-dihydrothieno[2,3-d]pyrimidine-6-carboxylic acid ethyl ester], the melting point lay in the range of 160.1 to 161.8 °C.

For `Cc1sc2nc(SCCCN3CCN(c4ccc5ccccc5n4)CC3)[nH]c(=O)c2c1C` [Example 2-4, 5,6-dimethyl-2-[3-(4-quinolin-2-yl-piperazin-1-yl)propylthio]-3H-thieno[2,3-d]pyrimidin-4-one], the melting point was 224.8 to 225.9 °C.

`CCOC(=O)c1sc2nc(SCCCN3CCN(c4ccc5ccccc5n4)CC3)[nH]c(=O)c2c1C` [Example 2-6, 5-methyl-4-oxo-2-[3-(4-quinolin-2-ylpiperazin-1-yl)propylthio]-3,4-dihydrothieno[2,3-d]pyrimidine-6-carboxylic acid ethyl ester] had a melting point of 200.1 to 201.4 °C. As to `O=c1[nH]c(CCCCN2CCN(c3ccccn3)CC2)nc2sc3c(c12)CCCC3` [Example 3-10, 2-[4-(4-pyridin-2-ylpiperazin-1-yl)butyl]-5,6,7,8-tetrahydro-3H-benzo[4,5]thieno[2,3-d]pyrimidin-4-one], the melting point was 192.6 to 194.4 °C. For the molecule `Cc1[nH]cnc1CN1CCc2c(c3ccccc3n2C)C1=O.Cl` [alosetron, reference compound], the Number of excrements was determined as 5.2 in data set [1] (setting [2]), 4.1 in data set [1] (setting [3]) and 3.7 in data set [1] (setting [4]). In data set [1] (setting [3]), `Cl.O=C1CC2(CCCC2)CC(=O)N1CCCCN1CCN(c2ncccn2)CC1` [buspirone, reference compound] displayed a Number of excrements of 4.3. The same measure, in the same setting: as for `Cc1nccn1C[C@H]1CCc2c(c3cccc4c3n2CCC4)C1=O` [cilansetron, reference compound], the figure is 4.0. For the molecule `CN1[C@@H]2CCC[C@H]1C[C@@H](NC(=O)c1nn(C)c3ccccc13)C2.Cl` [granisetron, reference compound], the Number of excrements in data set [1] (setting [2]) is reported as 4.3. With `O=C(O)CC(O)(CC(=O)O)C(=O)O.O=C1[C@@H]2[C@H]3CC[C@H](C3)[C@@H]2C(=O)N1CCCCN1CCN(c2ncccn2)CC1` [tandospirone, reference compound], the results for the Number of excrements in data set [1] (setting [3]), in data set [1] (setting [4]) and in data set [1] (10 mg/kg intraperitoneal administration) were 5.7, 4.3 and 3.8, respectively.
